The record followed here is US10351883B2, “Compounds for increasing lipid synthesis and storage” (NUtech Ventures, priority 2015, dated 2019).

The test system of this test is Chlamydomonas reinhardtii. As to the kind of experiment: 8-point dose response assay (0.25-30 μM). In kind it is cell-based. Details: reference not given here. The following applies: for Dose Response Assay 0.25 μM: 0.25 μM compound; for Dose Response Assay 0.625 μM: 0.625 μM compound; for Dose Response Assay 2.5 μM: 2.5 μM compound; for Dose Response Assay 5 μM: 5 μM compound; for Dose Response Assay 10 μM: 10 μM compound; for Dose Response Assay 15 μM: 15 μM compound; for Dose Response Assay 30 μM: 30 μM compound. On the procedure:
A large scale in vivo high throughput screen (HTS) was performed to identify small compounds that stimulate lipid production and accumulation using the model organism Chlamydomonas reinhardtii. The HTS employed a 384-well microplate format in which cells were allowed to grow in the presence of the test compounds at 10 μM final concentration for 72 hours.
The screening library included 43,736 compounds (ChemBridge, Corp). […] A sub-set of compounds were retested using an 8-point dose response assay (0.25-30 μM). Compounds were further assessed visually using a Nikon Ti-inverted microscope (60×) to reconfirm lipid droplet accumulation was induced.

Setting [1] is: 8-point dose response, Nile Red lipid accumulation.
Where [2] appears, read: 1.25 μM compound, 8-point dose response, Nile Red lipid accumulation.

Where two headings read alike, the source gives them in different places.

In the case of `COc1ccc(C(=O)c2ccc(N3CCN(C)CC3)c([N+](=O)[O-])c2)cc1` [Compound 45], under setting [1], the “Dose Response Assay 0.25 μM” value was found to be 0.93, the “Dose Response Assay 0.625 μM” value was determined as 0.99, the “Dose Response Assay 2.5 μM” value worked out at 2.3 and the “Dose Response Assay 5 μM” value amounted to 3.61. In addition, under setting [1], the “Dose Response Assay 10 μM” value stood at 2.02, the “Dose Response Assay 15 μM” value is 2.06 and the “Dose Response Assay 30 μM” value came to 1.56. Moreover, the “Dose Response Assay 1.25 μM” value under setting [2] came out at 1.57.
For the compound `O=[N+]([O-])c1ccccc1CN1CCN(CC2CC3C=CC2C3)CC1` (stereo not shown) [Compound 39], under setting [1], the “Dose Response Assay 0.25 μM” value was 1.17, the “Dose Response Assay 0.625 μM” value is listed as 1.13, the “Dose Response Assay 2.5 μM” value is given as 1.18 and the “Dose Response Assay 5 μM” value is 1.18. For the same compound, under setting [1], the “Dose Response Assay 10 μM” value is 0.88, the “Dose Response Assay 15 μM” value is reported as 1.57 and the “Dose Response Assay 30 μM” value is reported as 1.38. For the same compound, under setting [2], the “Dose Response Assay 1.25 μM” value is recorded as 0.99.
Consider `O=C(Nc1ccc([N+](=O)[O-])cc1)c1ccccc1Cl` [Compound 11], for which, under setting [1], the “Dose Response Assay 0.25 μM” value is 1.02, the “Dose Response Assay 0.625 μM” value came out at 1.12, the “Dose Response Assay 2.5 μM” value was 0.93 and the “Dose Response Assay 5 μM” value amounted to 1.46. Also, under setting [1], the “Dose Response Assay 10 μM” value is listed as 2.78, the “Dose Response Assay 15 μM” value is on record as 2.28 and the “Dose Response Assay 30 μM” value came out at 1.78. In addition, the “Dose Response Assay 1.25 μM” value under setting [2] amounted to 0.97.
Take `CC(C)c1ccc(CN2CCN(C)CC2)cc1` [Compound 70]: the “Dose Response Assay 1.25 μM” value is 2.19. Also, under setting [1], the “Dose Response Assay 0.25 μM” value came out at 0.87, the “Dose Response Assay 0.625 μM” value is given as 1.55, the “Dose Response Assay 2.5 μM” value stood at 4.4 and the “Dose Response Assay 5 μM” value stood at 8.64. Moreover, under setting [1], the “Dose Response Assay 10 μM” value came out at 7.57, the “Dose Response Assay 15 μM” value was found to be 11.05 and the “Dose Response Assay 30 μM” value came to 11.07.
As to `CC(=O)Nc1ccc(S(=O)(=O)Nc2cc([N+](=O)[O-])ccc2C)cc1` [Compound 18], under setting [1], the “Dose Response Assay 0.25 μM” value turned out to be 1.01, the “Dose Response Assay 0.625 μM” value is reported as 0.97, the “Dose Response Assay 2.5 μM” value came to 1.13 and the “Dose Response Assay 5 μM” value came to 1.17. Further, under setting [1], the “Dose Response Assay 10 μM” value is 1.19, the “Dose Response Assay 15 μM” value is 1.31 and the “Dose Response Assay 30 μM” value is reported as 1.29. Also, the “Dose Response Assay 1.25 μM” value under setting [2] was found to be 0.89.
In the case of `COc1ccccc1C(=O)N1CCN(C(=O)C(c2ccccc2)c2ccccc2)CC1` [Compound 120], the “Dose Response Assay 1.25 μM” value stood at 0.89. Besides, under setting [1], the “Dose Response Assay 0.25 μM” value is given as 0.91, the “Dose Response Assay 0.625 μM” value is recorded as 0.64, the “Dose Response Assay 2.5 μM” value was found to be 1.12 and the “Dose Response Assay 5 μM” value turned out to be 1.07. For the same compound, under setting [1], the “Dose Response Assay 10 μM” value was determined as 2.15, the “Dose Response Assay 15 μM” value worked out at 3.19 and the “Dose Response Assay 30 μM” value is recorded as 1.02.
As for `O=C(Nc1ccc([N+](=O)[O-])cc1)c1c(F)c(F)c(F)c(F)c1F` [Compound 56], under setting [1], the “Dose Response Assay 0.25 μM” value is reported as 1.2, the “Dose Response Assay 0.625 μM” value is 1.2, the “Dose Response Assay 2.5 μM” value was 1.8 and the “Dose Response Assay 5 μM” value is given as 2.58. For the same compound, under setting [1], the “Dose Response Assay 10 μM” value came out at 2.71, the “Dose Response Assay 15 μM” value came out at 1.74 and the “Dose Response Assay 30 μM” value is recorded as 1.92. Under setting [2], the “Dose Response Assay 1.25 μM” value is 1.34.
For the compound `Cc1ccc(S(=O)(=O)c2ccc(-c3ccc([N+](=O)[O-])cc3)cc2)cc1` [Compound 2], under setting [1], the “Dose Response Assay 0.25 μM” value is 0.96, the “Dose Response Assay 0.625 μM” value was 1.01, the “Dose Response Assay 2.5 μM” value is given as 0.99 and the “Dose Response Assay 5 μM” value is listed as 1.1. Also, under setting [1], the “Dose Response Assay 10 μM” value is 1.53, the “Dose Response Assay 15 μM” value is given as 1.34 and the “Dose Response Assay 30 μM” value is listed as 2.11. Moreover, under setting [2], the “Dose Response Assay 1.25 μM” value is reported as 0.94.
